Measured values taken from patent US20100129289A1, “COMPOSITIONS AND METHODS FOR THE DETECTION OF VULNERABLE PLAQUE” (THE OHIO STATE UNIVERSITY RESEARCH FOUNDATION, priority 2006, published 2010).
Entries after “also recorded” stand apart in the source; their conditions may differ. Each block holds one substance with its values, some of them ahead of it. Ends that are not written are not given here. * marks the point of attachment. Biotin = O=C1N[C@H]2[C@H](CS[C@H]2CCCCC(=O)*)N1

Legend:
[1] = system: WHHL rabbit aortic tissue (intima); test: Resected WHHL rabbit aortic tissue peptide binding assay; conditions: for positive binding / staining on WHHL tissue samples: five to seven tissue samples per peptide; for staining on WHHL aortic tissue: overall statement across experiments; for staining of corresponding WHHL tissue samples: sections FIG. 10(c) (peptide 4) and FIG. 11(a) (peptide 3); for staining of individual WHHL tissue sections: sections FIG. 10(d) (peptide 4) and FIG. 11(b) (peptide 3); for staining on WHHL tissue, original versus randomized sequence: one experiment on a WHHL rabbit, FIGS. 14 and 15
Experimental: (§1) Experiments were performed to determine if the synthesized peptides could bind to the intima of the WHHL (diseased) rabbits but not to the NZW (control) rabbits. The following procedure is shown schematically in FIG. 2. The animals were anesthetized, injected with 0.7-1.0 mL heparin, and perfused with 200-300 mL Hanks buffered salt solution containing 1% BSA. A segment of the aorta comprising the aortic arch to the bifurcation of the aorta in the lower abdomen was removed and placed in a buffer solution of Hanks w/1% BSA and 1% protease inhibitor cocktail (Sigma, P8340). The aorta segments were opened longitudinally and sliced into individual pieces approximately 1-2 mm^2 each. These pieces were then placed into tubes containing individual peptides at a concentration of 5 μg/mL in the same buffer solution described above.
(§2) The tissue sections were incubated with individual peptides for 45-60 minutes at room temperature. Samples were washed 3× with PBS followed by incubation with SA-HRP or anti-FLAG-HRP in the same buffer for 45-60 minutes at room temperature. After another 3× washing, the samples were incubated with DAB for 30 minutes in the same buffer. After a final round of washing, tissue samples were imaged with a dissecting microscope and analyzed for the presence of brown staining on the endothelial surface. […] Some tissue sections received no peptide incubation; rather they were exposed only to SA-HRP or anti-FLAG-HRP as a control.

[2] = system: frozen WHHL aorta tissue sections; test: Direct staining on frozen WHHL rabbit tissue sections; type: binding; conditions: for staining of frozen WHHL aorta tissue sections: peptide 1 μg/mL, 4 μm sections, FIG. 22
Experimental: Some of the resected WHHL and NZW aortic arch tissues were frozen and sectioned into 4 μm slices. Binding assays were performed on these frozen sections in a similar manner to that described herein. Sections were thawed and incubated with blocking buffer (Hanks w/1% BSA) for 30 minutes. Individual peptides were added to the slides in blocking buffer at a concentration of 1 μg/mL. After 45 minutes of incubation, the slides were washed and either SA-HRP or anti-FLAG-HRP, depending on the modification of the peptides, was added at the recommended concentration and allowed to incubate for 1 hour. The slides were washed again, and the DAB substrate was added and incubated for 30 minutes while looking for brown color development. After washing away the DAB, the tissue samples were fixed with 10% buffered formalin for 10 minutes followed by counterstaining with hemotoxylin. The slides were then mounted with permount and glass coverslips for imaging. The standard SA-HRP and anti-FLAG-HRP controls were performed for these experiments as well.

[3] = system: NZW rabbit aortic tissue (intima); test: Resected NZW rabbit aortic tissue peptide binding assay; conditions: for staining / binding on NZW tissue: peptide 9 at 1× concentration, FIG. 12
Experimental: as §1, §2

lipid-loaded HAECs = test: Lipid-loaded HAEC peptide binding assay; type: cell-based, human; conditions: peptide 1, 5 or 100 μg/mL; SA-HRP or anti-FLAG-HRP with DAB
Experimental: Human aortic endothelial cells (HAECs) were loaded with acetylated low-density lipoprotein as described herein. Peptide binding assays were performed 24 hours after the third lipid-loading of the cells. Control cells grown in the standard media without added lipid were cultured for the same amount of time as the lipid-loaded HAECs.
The general procedure for the peptide binding assays was conducted as follows (see FIG. 1). Variations on this method will be discussed as well. Both the lipid- and non-lipid-loaded cells were imaged prior to the assays to verify morphological differences between the two conditions of the cells. The media was aspirated and cells were washed 3× with cold wash buffer (PBS w/Ca^2+, […] with 2% FBS), followed by a 5 minute incubation on ice to minimize internalization of peptides. Cold blocking buffer (PBS w/1% BSA) was added to the cells for 15 minutes to prevent nonspecific binding. Peptides were then added to the cells in cold blocking buffer at 1, 5, or 100 μg/mL and incubated for 1 hour on ice. Following incubation, cells were washed 3×, and either streptavidin horseradish peroxidase (SA-HRP) or anti-FLAG horseradish peroxidase (anti-FLAG-HRP) was added to the cells in cold blocking buffer at the recommended concentrations provided by the manufacturers. […]

[4] = system: aorta of ApoE knockout mice; test: ApoE knockout mice in vivo peptide binding assay; design: species or system mouse; conditions: 1 hour circulation, SA-HRP or anti-FLAG-HRP with DAB
Experimental: In the peptide binding assays, individual peptides are injected into an anesthetized mouse and allowed to circulate in vivo for 1 hour. Note that this is different from the WHHL/NZW binding assays where the aorta is first resected and then incubated with peptide. The animal is then fixed via cardiac perfusion with 4% formaldehyde, and the aorta is removed to test for binding of the peptide. The detection assay is the same assay described herein: either SA-HRP or anti-FLAG-HRP is added to the solution containing the resected tissue, followed by the addition of the DAB substrate, after which the tissue samples are sectioned and imaged.

[5] = system: WHHL rabbit aortic tissue (intima); test: Resected WHHL rabbit aortic tissue peptide binding assay
[6] = system: human atherosclerotic lesions; conditions: cited from earlier work
[7] = system: atherosclerotic lesion endothelium of ApoE knockout mice; conditions: mouse; cited from earlier work
[8] = 10× concentration (˜100 μg/mL) versus 1×, FIG. 13

Substance: SSLPAPPWPLRG [Peptide 6]
positive binding / staining on WHHL tissue samples ([1]; Exp201 (FIG. 18)): showed staining on one tissue sample
positive binding / staining on WHHL tissue samples ([1]; Exp217 (FIG. 19)): slight staining

Substance: ILTHEHTLPKQ-FLAG (ILTHEHTLPKQ-{FLAG}) [Peptide 9R]
staining of frozen WHHL aorta tissue sections [2]: no staining; also recorded: no binding

Substance: CDSIKWPNC [Peptide 23]
binding to lipid-loaded HAECs (brown staining) (lipid-loaded HAECs): negative result for binding

Substance: TSPQTKDC [Peptide 7]
positive binding / staining on WHHL tissue samples ([1]; Exp201 (FIG. 18)): showed staining on one tissue sample
positive binding / staining on WHHL tissue samples ([1]; Exp217 (FIG. 19)): slight staining
binding to aorta after in vivo circulation of peptide [4]: did not yield positive results

Substance: TDTTMGQVHRHP [Peptide 37]
positive binding / staining on WHHL tissue samples ([1]; Exp223 (FIG. 21)): some staining

Substance: APHYLKTAPPPN [Peptide 28]
positive binding / staining on WHHL tissue samples ([1]; Exp219 (FIG. 20)): some staining

Substance: CKQSFEKSC [Peptide 1]
positive binding / staining on WHHL tissue samples ([1]; Exp201 (FIG. 18)): showed staining on one tissue sample

Substance: NADNQMTWRHVL [Peptide 38]
positive binding / staining on WHHL tissue samples ([1]; Exp223 (FIG. 21)): some staining

Substance: TPLEVHPESLPW [Peptide 3]
staining on WHHL aortic tissue [1]: above-average reproducible staining
staining of corresponding WHHL tissue samples [1]: very little, if any, brown staining
staining of individual WHHL tissue sections [1]: best staining
staining / binding on NZW tissue [3]: no binding

Substance: Biotin-RNPGYTYHIALG [Peptide 4R]
staining on WHHL tissue, original versus randomized sequence [1]: much less staining compared to the original sequences

Substance: CNKNSIPHC [Peptide 20]
positive binding / staining on WHHL tissue samples ([1]; Exp201 (FIG. 18)): showed staining on one tissue sample

Substance: SIGYPLP [Peptide 13, reference compound]
positive binding / staining on WHHL tissue samples ([1]; Exp217 (FIG. 19)): stained

Substance: Biotin-PPEEWSPVTHLL [Peptide 3R]
staining on WHHL tissue, original versus randomized sequence [1]: much less staining compared to the original sequences

Substance: KSLSRHDHIHHH [Peptide 16]
positive binding / staining on WHHL tissue samples ([1]; Exp217 (FIG. 19)): stained

Continued, in another order:

positive binding / staining on WHHL tissue samples ([1]; Exp223 (FIG. 21)): some staining
Substance: CHPASSPQC [Peptide 34]

positive binding / staining on WHHL tissue samples ([1]; Exp217 (FIG. 19)): stained
Substance: CKSDANSHC [Peptide 2]

positive binding / staining on WHHL tissue samples ([1]; Exp217 (FIG. 19)): stained
Substance: CKQSPPSMC [Peptide 14]

staining on WHHL aortic tissue [1]: above-average reproducible staining
staining of corresponding WHHL tissue samples [1]: very little, if any, brown staining
staining of individual WHHL tissue sections [1]: good staining
staining / binding on NZW tissue [3]: no binding
Substance: YITPYAHLRGGN [Peptide 4]

positive binding / staining on WHHL tissue samples ([1]; Exp223 (FIG. 21)): some staining
Substance: NLTSLTQGSAML [Peptide 39]

positive binding / staining on WHHL tissue samples ([1]; Exp201 (FIG. 18)): showed staining on one tissue sample
Substance: CVMPGLKNC [Peptide 10]

binding to regions of plaque, dependence on dose ([1]; WHHL aortic tissue): dose-dependent manner
staining on WHHL aortic tissue [1]: consistently shows staining
staining on WHHL tissue at 10-fold increased concentration [5, 8]: increases dramatically
Substance: TQTPIKHHLLKE [Peptide 9]
location of staining in sectioned WHHL aorta ([1]; histological sections, Hoechst stain, 400×, FIG. 16): localized to the intimal layer, with no infiltration into the plaque region; also recorded: localized to the intimal layer of the aorta
staining over plaque versus non-plaque regions of WHHL aorta ([1]; histological sections, FIG. 17): present on intima covering regions of plaque but not over non-plaque regions; also recorded: seen over plaque-rich regions
staining on WHHL tissue, original versus randomized sequence [1]: stronger than the staining seen from peptide 9R
staining on NZW tissue at 10-fold increased concentration [3, 8]: remains the same as the staining seen with the 1× concentration
staining / binding on NZW tissue [3]: some slight staining; also recorded: light, distinct staining pattern; also recorded: slight background staining
binding to frozen tissue samples ([2]; frozen WHHL and NZW tissue): showed binding
staining of frozen WHHL aorta tissue sections [2]: strong brown staining on the surface; also recorded: stains the intimal surface
staining on WHHL aortic tissue relative to anti-FLAG-HRP control sections ([5]; 1× concentration (˜10 μg/mL), FIGS. 8 and 9, two WHHL rabbits): more total staining, and the staining is very distinct
binding to aorta after in vivo circulation of peptide [4]: did not yield positive results

positive binding / staining on WHHL tissue samples ([1]; Exp201 (FIG. 18)): showed staining on one tissue sample
positive binding / staining on WHHL tissue samples ([1]; Exp219 (FIG. 20)): some staining
Substance: SSSKMQAAHQLP [Peptide 24]

positive binding / staining on WHHL tissue samples ([1]; Exp217 (FIG. 19)): stained
Substance: CAPGPSKSC (cysteine pairing not given here; also: N-terminal biotin or C-terminal FLAG, which one not given here) [Peptide 12]
binding to human atherosclerotic lesions ex vivo [6]: bound
binding to atherosclerotic lesion endothelium of ApoE knockout mice in vivo [7]: bound

binding to lipid-loaded HAECs (brown staining) (lipid-loaded HAECs): negative result for binding
Substance: TAPHHSTPANVP [Peptide 17]

positive binding / staining on WHHL tissue samples ([1]; Exp201 (FIG. 18)): showed staining on one tissue sample
Substance: CNHRYMQMC [Peptide 11, reference compound]
binding to atherosclerotic lesion endothelium of ApoE knockout mice in vivo [7]: shown to bind
